# Test results: ChEMBL document CHEMBL3507680, “University of Dundee, Gates Library screen for HepG2 cell viability”
# Experiment: Human HepG2 cell viability assay in 384 well format
# Type: toxicity, cell-based
# Design: dose 125 nL, time 70.5 hour; cytotoxicity at 70.5 h: concentration not given beside the values
# Settings: HepG2 cells, read-out: Inhibition
row,SMILES,cytotoxicity at 70.5 h [%]
1,N#Cc1cn(C2CC2)c(=O)n(Cc2noc(-c3cccs3)n2)c1=O,-4.93
2,CC(OCc1ccccc1)C(=O)NC1CCN(CC(N)=O)CC1 (centres undefined),-6.55
3,COc1ccc(NC(=O)CN2CCS(=O)(=O)CC2)cn1,-10.4
4,CC(=O)NC1CCCN(C(=O)CCc2cccnc2)C1 (centres undefined),19.2
5,Cc1ccc(F)c(S(=O)(=O)NCc2[nH]ncc2Br)c1,-10
6,CC(C)(C)CC(=O)N1CSCC1C(=O)NC1=NCCS1 (centres undefined),19.4
7,CSCCC(C)NC(=O)c1cccc(-c2n[nH]c(C)n2)c1 (centres undefined),-6.77
8,CNC(=O)C(CC(C)C)NC(=O)c1cccc(-c2n[nH]c(C)n2)c1 (centres undefined),0.903
9,Brc1ccc(CN2CCC(NCc3ncc[nH]3)CC2)cc1,-0.173
10,COC(=O)[C@H](C)NC(=O)Cc1c(C)nc2cc(=O)[nH]n2c1C,-7.8
11,CS(=O)(=O)NCc1ccc2c(c1)CCC2,-7.69
12,CC(C)c1noc(CCC(=O)N(CC2CCOC2)C2CC2)n1 (centres undefined),-8.06
13,Cc1ccc(N2CCCN(C(=O)C(C)OCC3CC3)CC2)nn1 (centres undefined),-11.3
14,CC(C)(C)c1nnc(CSc2ccccn2)o1,-6.49
15,CCc1nnc(CSc2ccccn2)o1,-9.38
16,Clc1cc(Cl)cc(CN2CCC(NCc3cc[nH]n3)CC2)c1,-4.79
17,CC(C)(C)CN(CCC#N)C(=O)c1cccc(CN2CCCC2)c1,4.22
18,CCn1cc(NC(=O)NCCN2CCCCCC2=O)cn1,-6.34
19,CCCn1ccnc1-c1cccc(NC2CCOC2)c1 (centres undefined),-1.36
20,CCCN(Cc1nnnn1C1CC1)CC1COc2ccccc2O1 (centres undefined),0.609
21,O=C(NCc1nnc2n1CCC2)c1cn(-c2ccccc2Br)nn1,-2.93
22,N#Cc1cccnc1NCCc1cc(F)cc2c1OCOC2,24
23,O=C(Cc1c(F)cccc1Cl)NC1CCCCNC1=O (centres undefined),-5.89
24,Cc1ccc(-n2cc(C(=O)NCc3nnc4n3CCCCC4)nn2)cc1,-3.85

row,SMILES,cytotoxicity at 70.5 h [%]
1,CCn1cc(NC(=O)NCCN2CCCc3ccccc32)cn1,0.821
2,FC(F)(F)Oc1cccc(CNCc2ccc(-n3cncn3)nc2)c1,26.6
3,CC(C)C(CCO)NC(=O)Nc1ccc(-c2csnn2)cc1 (centres undefined),-5.31
4,COc1cccc(F)c1C(C)NC(=O)NCc1cnc(C)s1 (centres undefined),-1.56
5,CC(C)(C)NC(=O)CNc1ncc(Br)cn1,0.722
6,N#Cc1cc(S(N)(=O)=O)ccc1N1CCc2c(Cl)cccc2C1,42.5
7,COc1c(C(=O)NC(C)Cc2ccccc2Cl)c(C)nn1C (centres undefined),3.5
8,O=S(=O)(NC1CCOC1)c1ccc(C(F)(F)F)nc1 (centres undefined),-2.28
9,CCN(CCNS(=O)(=O)N1CCOCC1)C(=O)OC(C)(C)C,30.7
10,CCCn1nnnc1CN(CC)CC1COc2ccccc2O1 (centres undefined),2.13
11,Cc1nccn1-c1cccc(N2CCC(OCC3CCCCO3)CC2)n1 (centres undefined),-11.6
12,COC(=O)c1ncccc1N1CCCCC1,-6.28
13,CC(C)Oc1cccc(CN(C)C(=O)Cc2ccon2)c1,4.02
14,CN(CC(O)C(F)(F)F)C(=O)Nc1cccc(C(F)F)c1 (centres undefined),-7.43
15,Clc1cccc(C(CNCc2cccnc2)N2CCOCC2)c1 (centres undefined),29.7
16,Cc1cnn(Cc2ccc(NC(=O)N3CCCCC3CO)cc2)c1 (centres undefined),24.6
17,Cc1ccc(C(C)(O)CNC(=O)NCCc2ccc3c(c2)CCO3)o1 (centres undefined),26.1
18,COc1cc(CNC(=O)c2cc(Cl)ccc2F)ccn1,-5.8
19,COc1cc(CNC(=O)c2cc(S(C)(=O)=O)ccc2C)ccn1,-10.5
20,COc1cc(C#N)ccc1OCC(=O)NS(=O)(=O)c1cccnc1,-7.29
21,CCS(=O)(=O)Cc1csc(-c2ccc(S(C)(=O)=O)cc2)n1,-6.86
22,Cc1ccc(NC(C(N)=O)c2ccc(F)cc2)cc1 (centres undefined),-0.0602
23,COc1cc(C#N)ccc1OCC(=O)NS(=O)(=O)c1ccccc1,-7.96
24,CC(C)(C)Oc1ccc(CN)c(C(F)(F)F)c1,6.84

row,SMILES,cytotoxicity at 70.5 h [%]
1,CC(CS(C)(=O)=O)N(C)C(=O)NCCCc1ccc(Cl)cc1 (centres undefined),-3.65
2,Cc1noc(CCCNC(=O)CNC(=O)c2cc3ccccc3[nH]2)n1,-5.29
3,CC(C)(C)c1nccc(N2CCCCC2CNS(C)(=O)=O)n1 (centres undefined),-4.1
4,CCCc1csc(-c2ccc(S(C)(=O)=O)cc2)n1,-1.59
5,NC(=O)c1cc(C2CC2)nc2ccc(F)cc12,2.17
6,Cc1cc(C)c2nc(C3CC3)cc(C(=O)N3CCCC3C(N)=O)c2c1 (centres undefined),26.2
7,CC(NC(=O)CCn1cccn1)c1cn(-c2ccccc2)nn1 (centres undefined),-5.23
8,COc1ccc(Cl)cc1CCNC(=O)NCc1ccncc1,-0.665
9,Cc1cc(C(F)(F)F)c2c(=O)n(Cc3cc(C)on3)n(C)c2n1,-8.02
10,CCN(CC)C1CCN(C(=O)NCc2cccc(-n3ccnc3)c2)C1 (centres undefined),-6.04
11,O=C(Nc1cnn(Cc2ccc(Cl)cc2)c1)N1CCCC1CO (centres undefined),-7.38
12,CCN(CC)C1CCN(C(=O)NCc2cccc(-n3cccn3)c2)C1 (centres undefined),-8.43
13,CC(Cc1ccc(Cl)cc1)N(C)C(=O)NCCS(C)(=O)=O (centres undefined),18.5
14,Cc1ccccc1Cn1cnc2oc(C)c(C(=O)O)c2c1=O,-11.3
15,CN(C)c1cccc(C(=O)Nc2ccn(CCc3ccncc3)n2)c1,-12.6
16,Cc1noc(C2CCN(Cn3cc(Br)cn3)CC2)n1,-8.17
17,CN(C)S(=O)(=O)c1ccc(=O)n(CC2CCCCO2)c1 (centres undefined),-12.9
18,CN(C)S(=O)(=O)c1ccc(=O)n(CC2CCCO2)c1 (centres undefined),-1.56
19,Cc1cc(C[S+]([O-])Cc2ccccc2C)no1 (centres undefined),-8.16
20,Cc1cnn(C2CN(CCCOc3ccc(C#N)cc3)C2)c1,-2.39
21,NC(=O)C1CCN(c2ncccc2C(=O)N2CCc3ccccc32)C1 (centres undefined),-5.78
22,Cc1cc(C(=O)NC(C)CC(=O)c2ccco2)[nH]n1 (centres undefined),15.2
23,CCOc1ccc(Cl)cc1CCNC(=O)c1ccc(=O)n(C)c1,-10.2
24,CCS(=O)(=O)NCC(=O)NC1(C)CCc2ccccc2C1 (centres undefined),-5.54

row,SMILES,cytotoxicity at 70.5 h [%]
1,CCN1CC(COC(=O)c2cc(C)nn2CC)CC1=O (centres undefined),-7.36
2,Cc1nsc(N2CCCN(CC(=O)N(C)C3CC3)CC2)n1,-4.31
3,CC(CC(=O)c1ccco1)NC(=O)c1ccccn1 (centres undefined),-10.8
4,CCc1nsc(N2CCCN(CC(=O)N(C)C3CC3)CC2)n1,-6.24
5,Cc1cnn(C2CN(CC(O)COc3ccc(C#N)cc3)C2)c1 (centres undefined),-3.3
6,COCCN(C)CC1CCCN1S(=O)(=O)Cc1ccccc1F (centres undefined),13.2
7,Cc1ccc(C(=O)NCC(O)CN2CCCC2=O)cc1Cl (centres undefined),6.85
8,Cc1noc(C)c1CC(=O)NCCc1cccs1,7.71
9,CCOC(=O)C(C)NC(=O)CCc1ccc(F)cc1 (centres undefined),1.35
10,NC(=O)Nc1cccc(CNC(=O)CCCc2ccccc2)c1,18
11,O=C(CCNC(=O)NC1CC1)NCc1ccccc1,-6.54
12,CCc1ncc(C(=O)N2CCN(c3nc(C)cc(OC)n3)CC2)s1,15.8
13,CCc1[nH]ncc1C(=O)N1CCN(c2nc(C)cc(OC)n2)CC1,-4.16
14,CC(C)(C)C(=O)NCCC(=O)NS(=O)(=O)c1cccnc1,9.3
15,CCn1nc2c(cc1=O)CN(CCOc1ccc(C#N)cc1)CC2,17.6
16,OCCN(Cc1cccnc1)c1cnc2ccccc2n1,-4.32
17,Cc1cccc(C)c1CN1C(=O)CC2(CCSC2)C1=O (centres undefined),0.0631
18,OCCN(Cc1cccnc1)c1ccc(Br)cn1,-2.3
19,CN(CC(N)=O)C(=O)CCCn1ccc2cc(Cl)ccc21,10.8
20,CN1CCN(C2CCN(Cc3ccc(Cl)cc3)CC2)C1=O,-2.16
21,COCC(C)NC(=O)CCSc1ccc(F)cc1 (centres undefined),13.7
22,CCN(CC)C(=O)CNC(=O)c1cnc(-c2ccccc2)nc1,-2.98
23,Cc1cccc(CN2CCC(NCC3CNc4cc(C)nn4C3)CC2)c1 (centres undefined),-6.82
24,Cc1cc2n(n1)CC(CNC1CCN(C(=O)c3ccco3)CC1)CN2 (centres undefined),-6.69

row,SMILES,cytotoxicity at 70.5 h [%]
1,Cc1cc2n(n1)CC(CNC1CCN(C3CC3)CC1)CN2 (centres undefined),-4.14
2,Cc1cc(S(=O)(=O)Nc2cccc(I)c2)sc1C(=O)O,13.9
3,O=C(NCC1CC1)c1cnc(-c2ccccc2)nc1,-5.81
4,CC(=O)c1cccc(NS(=O)(=O)c2cc(C)c(C(=O)O)s2)c1,-4.79
5,Cc1noc(C)c1CCC(=O)NC(C)c1nnc2n1CCCCC2 (centres undefined),-4.24
6,Cc1nc(CN2CCC(CNC(=O)Nc3ccccc3)CC2)oc1C,-6.72
7,CCOc1ccc(NS(=O)(=O)c2cc(C)c(C(=O)O)s2)cc1F,-8.14
8,CCOc1c(Cl)cccc1NS(=O)(=O)c1cc(C)c(C(=O)O)s1,-4.74
9,Cn1cc(N2CCC(NC(=O)c3ccccc3F)C2=O)cn1 (centres undefined),-1.23
10,Cc1cccc(C(=O)NC2CCN(c3cnn(C)c3)C2=O)c1C (centres undefined),-2.07
11,CCC(CC)c1cc(CNC(=O)N2CCN(CC)CC2)on1,-2.19
12,CCOC(=O)NC(CNC(=O)c1cn(C)cn1)CC(C)C (centres undefined),-1.97
13,CCC(CC)c1cc(CNC(=O)N2CCC(n3cncn3)CC2)on1,-1.7
14,CC(NC(=O)CCCc1nc(C(C)(C)C)no1)c1nnc2n1CCC2 (centres undefined),-2.92
15,CCN1CCN(c2ccc(F)cc2C(C)NCc2ccnn2C)CC1 (centres undefined),-1.9
16,O=C(CNc1cc2c(cc1Cl)OCCCO2)NCc1ccc(F)cc1,-4.01
17,CC(NC(=O)COc1ccccc1C(=O)O)c1ccc(F)cc1 (centres undefined),-9.45
18,CC(C)OCCC(=O)Nc1cccc(N2CCN(CC3CC3)CC2)c1,-4.83
19,N#Cc1ccnc(N2CCN(CC(O)c3ccc(F)cc3F)CC2)c1 (centres undefined),-3.3
20,N#Cc1ccnc(N2CCN(CC(O)c3cc(F)ccc3F)CC2)c1 (centres undefined),-5.77
21,N#Cc1ccnc(N2CCN(CC(O)c3ccccc3)CC2)c1 (centres undefined),-8.1
22,Cc1[nH]c(C2(N)CCCCC2)nc(=O)c1C,-4.13
23,CCc1c(C)[nH]c(C2(N)CCCCC2)nc1=O,0.763
